Entries after “also recorded” stand apart in the source; their conditions may differ. Ends that are not written are not given here. * marks the point of attachment. Biotin = O=C1N[C@H]2[C@H](CS[C@H]2CCCCC(=O)*)N1
Key:
[1] = system: P. falciparum (3D7 strain) merozoite proteins; experiment: Blot overlay assay, merozoite proteins; format: binding, Plasmodium falciparum; conditions: biotinylated peptides each 400 μM
Procedure: (§1) Naturally released P. falciparum (3D7 strain) merozoites isolated as described (Mrema, J. E., et al., Exp Parasitol 54:285-295, 1982) and human RBC ghosts prepared as described (Dodge, J. T., et al., Arch Biochem Biophys 100:119-130, 1963) were subjected to SDS-PAGE. Proteins transferred onto nitrocellulose membrane were blocked overnight with 10% milk, 2% BSA, TBST (0.05%) at 4° C. After washing (4×) in TBST, the blot was incubated with biotinylated Band 3 peptides (each 400 μM) in TBST (0.025%), 10 mM phosphate buffer (pH 8.0), 60 mM KCl for 4 h at RT. After extensive washing, the blot was incubated with neutravidin-linked horseradish peroxidase (1:21,000, Pierce Chemical Co., Rockford, Ill.) in TBST (0.05%) with 2% BSA for 5-6 h at RT. After washing the blot with TBST (5×) and TBS (2×), bound peptides were visualized by the ECL method (Pierce Chemical Co.).
(§2) A binding study was carried out between the synthetic Band 3 peptides and merozoite proteins to understand the mechanism by which Band 3 peptides 5B, 5C, and 6A inhibit the parasite invasion of RBCs. P. falciparum merozoites essentially free of contaminating RBC membrane components were isolated (FIG. 3A), and total merozoite proteins were separated by SDS-PAGE (FIG. 3B). […] This was confirmed by Western blot using anti-spectrin and anti-Band 3 antibodies (not shown). […] Approximate molecular masses of these merozoite proteins are 175, 150, 125, 52, 48, 42, and 35 kDa (shown by arrowheads).

human RBC ghost proteins = experiment: Blot overlay assay, RBC ghost proteins; format: binding; conditions: biotinylated peptides each 400 μM
Procedure: as §1, §2

[2] = system: P. falciparum intraerythrocytic growth; experiment: Growth inhibition assay by 3H-hypoxanthine incorporation method; format: cell-based, Plasmodium falciparum; conditions: 400 μM peptide; vs no peptide control
Procedure: (§3) FIG. 2 depicts the inhibition of P. falciparum invasion into RBCs by human Band 3 peptides. […] Ectodomains are shown as boxes in the three models. (i) Overlapping 12 to 20-residue peptides shown in solid bars were prepared according to the putative ectodomain boundaries. (ii) Casey model (Fujinaga, J., et al., J Biol Chem 274:6626-6633, 1999). (iii) Reithmeier model (Popov, M., et al., J Biol Chem 272:18325-18332, 1997). (iv) Sherman model (Crandall, I., et al., Parasitology 108:257-267, 1994). […] Artemisinin (25 μM) and no peptide samples were positive and negative controls, respectively. FIG. 2C is a bar graph depicting of invasion inhibition assay by ^3H-hypoxanthine incorporation method. Effects of Band 3 peptides relative to the control sample (no peptide) are shown. Artemisinin (50 μM) and unrelated peptide derived from dematin were used as positive and negative control, respectively. FIG. 2D is a bar graph that depicts results of a growth inhibition assay by ^3H-hypoxanthine incorporation method. Effects of Band 3 peptides relative to the control sample (no peptide) are shown. In all inhibition assays, mean parasitemia from three experiments was calculated with standard error. DMSO background was corrected when necessary. Student's t test was used to compare with the control (no peptide). FIG. 2E is a table providing a summary of net charge and pI for Band 3 peptides.
(§4) To investigate the possible role of Band 3 as a host receptor in P. falciparum invasion into RBCs, we employed a peptide scanning strategy based on recent topology models of human erythroid Band 3 (FIG. 2A). Synthetic peptides were derived from the putative ectodomains of human RBC Band 3, and their ability to inhibit the P. falciparum (3D7 strain) invasion of human RBCs in culture was tested using both visual counting (Schlichtherle, M., et al., Methods in Malaria Research 2000) and ^3H-hypoxanthine incorporation (Chulay, J. D., et al., Exp Parasitol 55:138-146, 1983) methods. […] Inhibition by these four Band 3 peptides was concentration dependent (50, 200, 500, and 1000 μM peptides, data not shown).

[3] = system: P. falciparum (3D7 strain) invasion of human RBCs; experiment: Invasion inhibition assay by 3H-hypoxanthine incorporation method; format: cell-based, Plasmodium falciparum; conditions: for inhibition of invasion, 3H-hypoxanthine uptake assay: 400 μM peptide, vs other Band 3 peptides, no peptide and unrelated peptide; for IC50: 3H-hypoxanthine incorporation method, mean of three experiments±standard error, read-out: IC50 (50% inhibition in the parasite invasion of RBCs)
Procedure: as §3, §4
The IC50 values for peptides 5A and 5B could not be estimated because a saturable peptide concentration could not be reached with a low DMSO (≦1%) concentration. It is noteworthy that our peptides 5A, 5B, 5C, and 6A were designed by randomly dividing the two ectodomains of Band 3, and thus these peptides may not necessarily represent Band 3 amino acid compositions having the best inhibitory property. […] These findings are consistent with the view that Band 3 functions as an important receptor in the parasite invasion of RBCs.

[4] = target: P. falciparum (3D7 strain) merozoite proteins (approximate molecular masses 175, 150, 125, 52, 48, 42, and 35 kDa); experiment: cell-based or functional assay
[5] = system: P. falciparum (3D7 strain) invasion of human RBCs; experiment: Invasion inhibition assay by visual counting method; format: cell-based, Plasmodium falciparum; conditions: for inhibition of invasion, visual counting assay: 500 μM peptide, ring stage parasites in Giemsa-stained thin smears, vs other Band 3 peptides and no peptide control; for inhibition of the invasion of Plasmodium falciparum malaria parasite into human erythrocytes in vitro: peptide scanning experiment, compared to control sample
Procedure: as §3
Plasmodium parasite cultures were maintained at 37° C. as described by Klotz, F. W., et. al., J Exp Med 165:1713-1718, 1987. To determine infection in RBCs, rings were counted from RBCs in Geimsa-stained thin smears.
as §4

GST-MSP138 = experiment: Solution-binding assay, GST-MSP138 on beads; set-up: species or system P. falciparum (FCB1 strain)
From the text: MSP138 (SEQ ID NO:33), MSP142 (SEQ ID NO:34), and MSP119 (SEQ ID NO:35) genes were amplified from a P. falciparum (FCB1 strain) cDNA library (J. B. Dame) by PCR using the following primers: 5′-[…] (SEQ ID NO: 14, MSP138, sense, 3121-3133, Xhol), 5′-[…] (SEQ ID NO:15, MSP138, antisense, 4200-4193, NotI), 5′-[…] (SEQ ID NO:16, MSP142, sense, 4201-4218, XhoI), 5′-[…] (SEQ ID NO:17, MSP142, antisense, 5334-5321 NotI), 5′-[…]: (SEQ ID NO:18, MSP119, sense, 4993-5009 BamHI), 5′-[…] (SEQ ID NO:19, MSP119, antisense, 5334-5318, EcoRI). Similar cDNA libraries as well as CDNA pools are available to the public from MR4, ATCC (www.malaria.atcc.org).
Primers: 5′-[…] […] (SEQ ID NO:26, 6AB, antisense, 2640-2620, EcoRI).

[6] = target: T1, SV40 large T-antigen fused to GAL4 AD (pGADT7 vector), two-hybrid control (UniProt P03070 86-708); experiment: yeast two-hybrid assay
T1 construct: Kit control; also called pGADT7-T
T1 sequence (P03070 86-708 limits assumed): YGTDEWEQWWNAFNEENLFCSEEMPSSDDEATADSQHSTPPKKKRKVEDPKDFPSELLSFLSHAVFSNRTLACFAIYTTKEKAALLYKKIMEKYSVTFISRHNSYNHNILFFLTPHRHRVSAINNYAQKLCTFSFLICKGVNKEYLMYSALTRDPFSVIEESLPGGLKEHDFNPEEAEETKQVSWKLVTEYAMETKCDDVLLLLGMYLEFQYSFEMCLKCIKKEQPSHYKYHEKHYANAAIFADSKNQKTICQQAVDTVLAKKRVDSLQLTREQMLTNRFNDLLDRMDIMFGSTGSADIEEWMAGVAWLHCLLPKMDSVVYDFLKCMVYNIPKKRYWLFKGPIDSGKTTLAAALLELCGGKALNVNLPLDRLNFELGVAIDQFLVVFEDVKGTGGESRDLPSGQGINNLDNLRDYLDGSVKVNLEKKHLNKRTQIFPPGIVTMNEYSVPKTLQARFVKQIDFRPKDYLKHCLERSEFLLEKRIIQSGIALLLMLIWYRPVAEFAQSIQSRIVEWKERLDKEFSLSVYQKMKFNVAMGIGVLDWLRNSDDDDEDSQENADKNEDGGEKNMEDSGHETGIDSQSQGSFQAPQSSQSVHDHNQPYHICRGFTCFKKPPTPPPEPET

In the case of “4A: Synthetic human Band 3 peptide, amino acid 623-642, N-terminal biotin tag (Biotin-FIQDTYTQKLSVPDGFKVSN; UniProt P02730 623-642, looked up, fragment) [Peptide 4A]”, the “binding to merozoite proteins, blot overlay” value (“binding to merozoite proteins” for short) [1] is reported as “did not show significant binding” and the “binding to RBC ghost proteins, blot overlay” value (“binding to RBC ghost proteins” below) (human RBC ghost proteins) is reported as “non-specific bindings”.

In the case of “2: Synthetic human Band 3 peptide, amino acid 477-491, N-terminal biotin tag (Biotin-SFCETNGLEYIVGRV; UniProt P02730 477-491, looked up, fragment) [Peptide 2]”, the “effect on intraerythrocytic growth of the parasite (3H-hypoxanthine uptake)” value (“effect on intraerythrocytic growth” for short) [2] is reported as “mild reduction in 3H-hypoxanthine uptake”, the “binding to merozoite proteins” value [1] is reported as “did not show significant binding” and the “binding to RBC ghost proteins” value (human RBC ghost proteins) is reported as “non-specific bindings”.

For “Peptide 1: Synthetic human Band 3 peptide, amino acid 424-435, N-terminal biotin tag (Biotin-GGLLGEKTRNQM; UniProt P02730 424-435, looked up, fragment)”, the “inhibition of invasion, 3H-hypoxanthine uptake assay” value [3] was “moderate but significant levels of inhibition of invasion” and the “effect on intraerythrocytic growth” value [2] was “mild reduction in 3H-hypoxanthine uptake”.

“3A: Synthetic human Band 3 peptide, amino acid 538-557, N-terminal biotin tag (Biotin-SKLIKIFQDHPLQKTYNYNV; UniProt P02730 538-557, looked up, fragment) [Peptide 3A]” was tested, and the “binding to merozoite proteins” value [1] was “did not show significant binding” and the “binding to RBC ghost proteins” value (human RBC ghost proteins) was “non-specific bindings”.

“Human Band 3 peptide 5C (amino acid 742-761), synthetic with N-terminal biotin tag” showed an IC50 values (50% inhibition in the parasite invasion of RBCs), 3H-hypoxanthine incorporation method [4] of 591 µM.

For GMPWLSATTVRSVTHANALT [Peptide 5A], the “inhibition of invasion, visual counting assay” value [5] was “significant levels of inhibition of invasion”, the “inhibition of the invasion of Plasmodium falciparum malaria parasite into human erythrocytes in vitro” value (shortened to “inhibition of the invasion … in vitro”) [5] was “inhibited the invasion” and the “effect on intraerythrocytic growth” value [2] was “mild reduction in 3H-hypoxanthine uptake”.

In the case of “5BC: Recombinant human Band 3 peptide, amino acid 731-761, expressed as GST or GAL4 DNA-BD fusion (SVTHANALTVMGKASTPGAAAQIQEVKEQRI; also: expressed as GST or GAL4 DNA-BD fusion) [Peptide 5BC]”, the “binding to GST-MSP138 on beads” value (GST-MSP138; 32P-labeled 5BC 21, 42, 84, 168 μM) is reported as “concentration-dependent manner” and the Kd (GST-MSP138; 32P-labeled peptide, pH 7.4, 25° C., 3.5 h, C-terminal truncated GST-MSP138) is reported as 67 µM.

“DRILLLFKPPKYHPDVPYVK [Peptide 6A, Synthetic human Band 3 peptide, amino acid 807-826]” was tested, and the “inhibition of invasion, visual counting assay” value [5] was “significant levels of inhibition of invasion”, the “inhibition of the invasion … in vitro” value ([5]; listed as B36A) was “inhibited the invasion; also recorded: highest inhibition” and the “inhibition of invasion, 3H-hypoxanthine uptake assay” value [3] was “strong inhibition”. For the same molecule, the IC50 [3] was 316 ± 45 µM, the “effect on intraerythrocytic growth” value [2] was “did not affect the intraerythrocytic growth of the parasite” and the “binding to merozoite proteins” value [1] was “specifically bind”.

For “SVTHANALTVMGKASTPGAA [Peptide 5B, Synthetic human Band 3 peptide, amino acid 731-750]”, the “inhibition of invasion, visual counting assay” value [5] was “significant levels of inhibition of invasion”, the “inhibition of the invasion … in vitro” value [5] was “inhibited the invasion” and the “inhibition of invasion, 3H-hypoxanthine uptake assay” value [3] was “moderate but significant levels of inhibition of invasion”. For the same molecule, the “effect on intraerythrocytic growth” value [2] was “did not affect the intraerythrocytic growth of the parasite”.

For “GKASTPGAAAQIQEVKEQRI [Peptide 5C, Synthetic human Band 3 peptide, amino acid 742-761]”, the “inhibition of invasion, visual counting assay” value [5] was “significant levels of inhibition of invasion”, the “inhibition of the invasion … in vitro” value ([5]; listed as B35C) was “inhibited the invasion; also recorded: highest inhibition” and the “inhibition of invasion, 3H-hypoxanthine uptake assay” value [3] was “moderate but significant levels of inhibition of invasion”. The IC50 [3] was 591 ± 131 µM, the “effect on intraerythrocytic growth” value [2] was “did not affect the intraerythrocytic growth of the parasite” and the “binding to merozoite proteins” value [1] was “specifically bind”.

“Human Band 3 peptide 6A (amino acid 807-826), synthetic with N-terminal biotin tag” was tested, and the IC50 values (50% inhibition in the parasite invasion of RBCs), 3H-hypoxanthine incorporation method [4] was 316 µM.

B1: GAL4 DNA-BD fusion of Band 3 peptide 5BC (amino acids 731-761) in pGBKT7 (other)
peptide: SVTHANALTVMGKASTPGAAAQIQEVKEQRI
modifications: not fully specified (N-terminus); also: GAL4 DNA-BD fusion in pGBKT7, fused part not given here
B1: no binding [6].

B2: GAL4 DNA-BD fusion of Band 3 peptide 5ABC (amino acids 720-761) in pGBKT7 (other)
peptide: GMPWLSATTVRSVTHANALTVMGKASTPGAAAQIQEVKEQRI
modifications: not fully specified (N-terminus); also: GAL4 DNA-BD fusion in pGBKT7, fused part not given here
notes: also called BD-5ABC; pGBKT7-5ABC
B2: no binding [6].

B3: GAL4 DNA-BD fusion of Band 3 peptide 6AB (amino acids 807-842) in pGBKT7 (other)
peptide: DRILLLFKPPKYHPDVPYVKRVKTWRMHLFTGIQII
modifications: not fully specified (N-terminus); also: GAL4 DNA-BD fusion in pGBKT7, fused part not given here
B3: no binding [6].
